Here are results for six compounds from patent US8440713B2, “[1]benzothieno[3,2-B][1]benzothiophene compound and method for producing the same, and organic electronic device using the same” (Ricoh Company, Ltd., priority 2008, dated 2013).

The nature of this data set: Solubility of the precursor in chloroform, toluene and THF (solution left to stand, precipitation observed). It counts as physicochemical. The following applies: for Solubility: toluene, THF, 1% or 5% by mass, left to stand 12 hours at room temperature. Here is the method: Precursor 1 synthesized in Example 1 was dissolved respectively in chloroform, toluene and THF so as to be contained therein in concentrations of 1.0% by mass and 5.0% by mass, and then passed through a filter so as to prepare each solution.
The evaluation criteria of the solubility in Table 1 are as follows:
A: No precipitation of a solute was observed when a precursor was dissolved in each solution so as to be contained in a concentration of 5% by mass, and then left to stand for 12 hours at a room temperature.
B: No precipitation of a solute was observed when a precursor was dissolved in each solution so as to be contained in a concentration of 1% by mass, and then left to stand for 12 hours at a room temperature.
C: Precipitation of a solute was observed when a precursor was dissolved in each solution so as to be contained in a concentration of 1% by mass, and then left to stand for 12 hours at a room temperature.

Take `CCCCCCCCc1ccc2c(c1)sc1c3ccc(CCCCCCCC)cc3sc21` [Comparative Example 2, 2,7-dioctyl[1]benzothieno[3,2-b][1]benzothiophene, reference compound]: the Solubility result is “B (No precipitation of a solute was observed when a precursor was dissolved in each solution so as to be contained in a concentration of 1% by mass, and then left to stand for 12 hours at a room temperature.)”.

With `CCCCCCC(CCCC)C(=O)OC(CC)c1ccc(-c2ccc(-c3ccc4c(c3)sc3c5ccc(-c6ccc(-c7ccc(C(CC)OC(=O)C(CCCC)CCCCCC)s7)s6)cc5sc43)s2)s1` (stereo not shown) [Example 15], the Solubility entry was “A (No precipitation of a solute was observed when a precursor was dissolved in each solution so as to be contained in a concentration of 5% by mass, and then left to stand for 12 hours at a room temperature.)”.

As to `CCCCSC(=S)OC(CC)c1ccc(-c2ccc3c(c2)sc2c4ccc(-c5ccc(C(CC)OC(=S)SCCCC)s5)cc4sc32)s1` (stereo not shown) [Example 16], the Solubility result was “A (No precipitation of a solute was observed when a precursor was dissolved in each solution so as to be contained in a concentration of 5% by mass, and then left to stand for 12 hours at a room temperature.)”.

As for `c1ccc(-c2ccc3c(c2)sc2c4ccc(-c5ccccc5)cc4sc32)cc1` [Comparative Example 1, 2,7-diphenyl [1]benzothieno[3,2-b][1]benzothiophene, reference compound], the Solubility entry is “C (Precipitation of a solute was observed when a precursor was dissolved in each solution so as to be contained in a concentration of 1% by mass, and then left to stand for 12 hours at a room temperature.)”.

For the compound `CCCCCCC(CCCC)C(=O)OC(CC)c1ccc(-c2ccc3c(c2)sc2c4ccc(-c5ccc(C(CC)OC(=O)C(CCCC)CCCCCC)s5)cc4sc32)s1` (stereo not shown) [Example 13], the Solubility result was “A (No precipitation of a solute was observed when a precursor was dissolved in each solution so as to be contained in a concentration of 5% by mass, and then left to stand for 12 hours at a room temperature.)”. Moreover, the “solute separation from solution” value (toluene and THF, 1.0% by mass and 5.0% by mass, filtered, left to stand over night at room temperature) was “solute separation was not observed at all in any solvent and concentration”.

For the compound `CCCCCCC(CCCC)C(=O)OC(CC)c1ccc(-c2ccc3c(c2)sc2c4ccc(-c5ccc(C(CC)OC(=O)C(CCCC)CCCCCC)cc5)cc4sc32)cc1` (stereo not shown) [Example 14], the Solubility entry was “A (No precipitation of a solute was observed when a precursor was dissolved in each solution so as to be contained in a concentration of 5% by mass, and then left to stand for 12 hours at a room temperature.)”.
